Consider 1 compound from patent US20080194531A1, “Methods for Treating Visual Disorders” (priority 2005, published 2008).

Entries after “also recorded” stand apart in the source; their conditions may differ.

For data set [1], the system named is neurosensory retinal degeneration (P23H rat). Briefly: Outer nuclear layer (ONL) cell counting / retinal histopathology in homozygous P23H rats given TUDCA subcutaneously. It is filed as in vivo. The source says:
We have studied the use of bile acids (tauroursodeoxycholic acid, TUDCA) for inhibition of neurosensory retinal degeneration in an animal model of retinal degeneration (P23H rat).
Animal Studies: The P23H rat model of inherited retinal degeneration is an animal model of a common mutation found in >10% of autosomal dominantly inherited retinitis pigmentosa in humans. This animal model has been studied in the laboratory of Dr. Olsen at the University of Minnesota. The mechanism of retinal degeneration is mediated by apoptosis, but may follow a separate pathway than that of the rds mouse. The P23H rat model represents a protein conformational disorder that leads to retinal degeneration. Other examples of protein conformation disorders include Huntington's and Parkinson's disease.
(§1) Preliminary Study: Homozygous line 1 and line 3 P23H rats (very strong model of rapid retinal degeneration, especially in the homozygous state), were given 100-200 mg/kg/d of TUDCA via subcutaneous injections while control animals will be given placebo vehicle only. Animals were sacrificed at intervals that correspond to the known retinal degenerations. Eyes were enucleated and the neurosensory retina was examined for signs of neuroprotection by counting the cell nuclei in the various retinal layers (FIG. 1; study design). For each animal studied, 14 sections were taken for each eye with 30-50 separate measurements performed and averaged for each section. Counting the average number of outer nuclear layer (ONL) cells was used to determine the level of retinal injury or loss.

The subject of another data set is apoptosis. The settings on record: in vitro and in vivo; blocking classic pathways, induction of survival pathways; cited from earlier work.
A short description of data set [2]: Animal weight recordings in TUDCA-treated P23H rats. The data set is classed as in vivo, rat. The settings on record: p<0.05, TUDCA 100-200 mg/kg/d subcutaneous, suggests systemic toxicity. Here is the method:
as §1

In data set [3] the test system is neurologic injury after acute ischemic or hemorrhagic stroke. The settings on record: cited from earlier work.
Data set [4] concerns Huntington's disease animal models. The settings on record: animal models of Huntington's disease; cited from earlier work.
In data set [5] the test system is inherited retinal degeneration (rds mouse). The settings on record: preliminary work; cited from earlier work.
A further data set concerns Parkinsonian rats. The settings on record: cited from earlier work.

In the case of `C[C@H](CCC(=O)NCCS(=O)(=O)O)[C@H]1CC[C@H]2[C@@H]3[C@@H](O)C[C@@H]4C[C@H](O)CC[C@]4(C)[C@H]3CC[C@]12C` [TUDCA, tauroursodeoxycholic acid], the “thickness of the ONL in histopathologic images, drug treated vs vehicle” value in data set [1] (homozygous P23H rat line 1, week 12, TUDCA 100-200 mg/kg/d subcutaneous, FIG. 2) is “visible difference in the thickness of the drug treated ONL as compared to the vehicle”. For the same compound, in data set [1] (homozygous P23H rat line 1, weeks 7, 10 and 12, TUDCA 100-200 mg/kg/d subcutaneous, FIG. 3), the “average number of ONL cells, TUDCA vs vehicle controls” value is on record as “no statistically significant differences; also recorded: no statistically significant protective effect”. The “rate of retinal degeneration by counting the ONL layer thickness” value in data set [1] (homozygous P23H rat line 3, 9 week post-natal time point, p=0.16 (not statistically significant), TUDCA 100-200 mg/kg/d subcutaneous, FIG. 4) is on record as “trend toward a protective effect”. Also, in data set [1] (homozygous P23H rat line 3, TUDCA 100-200 mg/kg/d subcutaneous, FIG. 2), the “thickness of the ONL in histopathologic images, drug treated vs control” value was “less noticeable difference between the drug treated and the control”. Further, in the data set with apoptosis, the interruption of apoptosis result is on record as “will interrupt apoptosis”. For the same compound, the “animal weight, treated vs controls” value in data set [2] (P23H rat line 1, by day 37 and beyond) is reported as “significant weight loss”. Moreover, in data set [2] (P23H rat line 3, by day 37 and beyond), the “animal weight, treated vs controls” value is listed as “significant weight loss”. Moreover, the “protection against neurologic injury” value in data set [3] is “protect against neurologic injury”. Further, in data set [4], the neuroprotection entry was “neuroprotective”. Also, in data set [5], the “electroretinographic response (functional test of vision)” value is given as “preservation of visual function” and the “protection of the inner nuclear layer of the retina” value is reported as “dramatic protection of the inner nuclear layer of the retina”. For the same compound, the graft survival result in the data set on Parkinsonian rats is given as “improved graft survival”.
